From patent publication US8101774B2, “Ester derivatives and medicinal use thereof” (Japan Tobacco Inc., priority 2004, dated 2012)
Where a name gives a salt, the structure may show the parent alone.

Target: T1, Microsomal triglyceride transfer protein (MTP) from human small intestine microsome (Homo sapiens, UniProt P55157)
T1 construct: Human small intestine microsome was dialyzed against 10 mM phosphate buffer; tissue Tissue Transforming Technologies, Inc; host or cells: human small intestine microsome
Test: Inhibition test of interliposomal triglyceride (TG) transfer activity by MTP
Type: biochemical
Details: purified MTP from human small intestine microsome, 37° C., 1.5 hours
Description: Microsomal triglyceride transfer protein (MTP) from human small intestine microsome (manufactured by Tissue Transforming Technologies, Inc.) was purified in such a way described below. Human small intestine microsome was dialyzed against 10 mM phosphate buffer (300 mL, pH 6.8) twice for about 2 hours and once for further not less than 12 hours, at about 4° C. After dialysis, the mixture was centrifuged at 4° C. and 15,000×g for 5 minutes and then the supernatant was recovered. The previously recovered supernatant was purified by column chromatography on diethylaminoethyl (DEAE) Sepharose using FPLC (Fast Performance Liquid Chromatography) system, and the purified MTP was used for the test as described below.
Small unilamellar-vesicle (SUV) liposome (hereinafter described as donor, containing 0.25% (mol/mol) triolein and 5% (mol/mol) cardiolipin) constituted by triolein labeled with ^14C and non-labeled SUV liposome (hereinafter described as acceptor, containing […] triolein) were prepared in such a way described below.
Firstly, in order to prepare the donor, there were volatilized under a stream of nitrogen gas a phosphatidylcholine solution containing phosphatidylcholine labeled with ^3H, a cardiolipin solution, and a triolein solution containing triolein labeled with ^14C (each solution had been already dissolved in an appropriate organic solvent), or in order to prepare the acceptor, there were volatilized under nitrogen flow a phosphatidylcholine solution containing phosphatidylcholine labeled with ^3H and a cardiolipin solution (each solution had been already dissolved in an appropriate organic solvent). An appropriate amount of a reaction buffer (15 mM Tris-HCl buffer containing 1 mM EDTA.Na2, 40 mM NaCl, and 0.5% (w/v) bovine serum albumin, pH 7.4) was added thereto to be emulsified. The emulsions were treated with ultrasonication under ice-cooling and centrifuged at 4° C. and 159,000×g for 2 hours. Each of the resulting supernatant was used for donor or acceptor.
Each radioactivity in the acceptor and the donor was measured by liquid scintillation counter, and a mixed solution of the acceptor and the donor was prepared with a reaction buffer so as to be a donor-derived radioactivity of 16,000 dpm/400 μL and a acceptor-derived radioactivity of 4,000 dpm/[…]. 400 μL of the mixed solution of the donor and the acceptor, 45 μL of the reaction buffer, 50 μL of MTP (20 μg/mL), and 5 μL of a sample dissolved in DMSO (dimethyl sulfoxide) or 5 μL of DMSO was mixed (total amount: 500 μL). The mixture was incubated at 37° C. for 1.5 hours. After completion of the incubation, 1.25 mL of a suspension of DEAE cellulose (66.7% (v/v)) in 15 mM Tris-HCl buffer (pH 7.4) containing 1 mM EDTA.Na2 was added to the above solution. The mixture was centrifuged to separate the donor (adsorbed on the DEAE cellulose to precipitate) and the acceptor (the supernatant). The radioactivity in the acceptor was measured by liquid scintillation counter. The value obtained by subtracting the radioactivity in a blank group from the radioactivity in the acceptor of a DMSO group was determined as MTP-mediated TG transfer activity, and it was compared with the value obtained by subtracting the radioactivity in the blank group from the radioactivity in a sample group. Here, the blank was prepared by adding 10 mM phosphate buffer (pH 6.8) containing 250 mM NaCl in place of MTP. Inhibition rate (%) was calculated from values obtained according to the following equation. Inhibition rate(%)=(1 minus((radioactivity of sample group minus radioactivity of blank group)/(radioactivity of DMSO group minus radioactivity of blank group)))×100.
50% Inhibition rate (IC50) was determined on the basis of the above equation.

T1 sequence (P55157 19-894): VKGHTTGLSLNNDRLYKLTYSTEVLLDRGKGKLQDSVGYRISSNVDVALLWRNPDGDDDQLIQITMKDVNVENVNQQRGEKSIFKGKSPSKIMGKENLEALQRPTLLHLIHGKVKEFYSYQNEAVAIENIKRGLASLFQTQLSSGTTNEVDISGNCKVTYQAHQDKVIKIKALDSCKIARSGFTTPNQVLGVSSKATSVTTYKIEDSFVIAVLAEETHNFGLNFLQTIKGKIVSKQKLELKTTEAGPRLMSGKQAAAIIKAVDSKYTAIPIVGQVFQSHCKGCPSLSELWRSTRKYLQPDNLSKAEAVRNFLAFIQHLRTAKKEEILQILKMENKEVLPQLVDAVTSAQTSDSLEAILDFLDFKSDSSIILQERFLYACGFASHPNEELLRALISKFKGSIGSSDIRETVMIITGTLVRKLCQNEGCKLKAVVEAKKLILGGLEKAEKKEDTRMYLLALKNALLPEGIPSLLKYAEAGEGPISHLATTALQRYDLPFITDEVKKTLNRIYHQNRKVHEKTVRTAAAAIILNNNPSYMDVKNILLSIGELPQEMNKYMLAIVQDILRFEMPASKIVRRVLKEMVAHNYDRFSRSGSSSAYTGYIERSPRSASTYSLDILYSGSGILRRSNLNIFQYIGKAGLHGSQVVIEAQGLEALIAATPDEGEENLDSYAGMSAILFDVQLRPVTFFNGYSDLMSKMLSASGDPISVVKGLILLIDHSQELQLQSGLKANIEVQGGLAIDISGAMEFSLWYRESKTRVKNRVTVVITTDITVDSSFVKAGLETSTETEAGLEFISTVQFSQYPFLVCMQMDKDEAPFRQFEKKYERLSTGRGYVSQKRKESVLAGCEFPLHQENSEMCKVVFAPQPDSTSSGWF
T1 sequence (P07237 18-508 partner): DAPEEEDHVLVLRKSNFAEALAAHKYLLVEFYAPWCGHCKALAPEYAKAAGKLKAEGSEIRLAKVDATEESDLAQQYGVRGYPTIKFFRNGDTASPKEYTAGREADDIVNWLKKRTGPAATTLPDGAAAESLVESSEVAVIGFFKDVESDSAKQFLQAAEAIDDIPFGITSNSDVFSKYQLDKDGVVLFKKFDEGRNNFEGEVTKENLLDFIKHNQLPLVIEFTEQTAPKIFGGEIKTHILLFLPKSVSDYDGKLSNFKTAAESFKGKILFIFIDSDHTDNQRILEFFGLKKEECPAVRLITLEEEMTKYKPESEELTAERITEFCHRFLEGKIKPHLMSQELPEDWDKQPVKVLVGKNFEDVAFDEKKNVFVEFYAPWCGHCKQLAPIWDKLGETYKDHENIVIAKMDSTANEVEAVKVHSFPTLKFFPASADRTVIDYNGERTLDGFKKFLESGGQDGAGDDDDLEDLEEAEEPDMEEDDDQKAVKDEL

With `Cc1ccc(C(=O)Nc2ccc(CCCC(=O)Oc3ccc(C(=O)OC(C)C)cc3)cc2C(=O)N(C)C)c(-c2ccc(C(F)(F)F)cc2)n1` [Compound 1-63, 4-[4-(3-dimethylcarbamoyl-4-{[6-methyl-2-(4-trifluoromethylphenyl)pyridine-3-carbonyl]amino}phenyl)butyryloxy]benzoic acid isopropyl ester sulfate] the IC50 was under 10 nM.
`CC(C)OCCOC(=O)c1ccc(OC(=O)CCCc2ccc(NC(=O)c3ccccc3-c3ccc(C(F)(F)F)cc3)c(C(=O)N(C)C)c2)cc1` [Compound 1-76, 4-[4-(3-dimethylcarbamoyl-4-{(4′-trifluoromethylbiphenyl-2-carbonyl)amino}phenyl)butyryloxy]benzoic acid 2-isopropoxyethyl ester] showed an IC50 of under 10 nM.
`COC(=O)c1ccc(OC(=O)CN(C)Cc2ccc(NC(=O)c3ccccc3-c3ccc(C(F)(F)F)cc3)c(C(=O)N(C)C)c2)cc1` [Compound 2-1, 4-[2-({3-dimethylcarbamoyl-4-[(4′-trifluoromethylbiphenyl-2-carbonyl)amino]benzyl}methylamino)acetoxy]benzoic acid methyl ester] showed an IC50 of 10 to 100 nM.
For `CN(C)C(=O)c1cc(CCCC(=O)Oc2ccc(C(=O)OCC(=O)OCc3ccccc3)cc2)ccc1NC(=O)c1ccccc1-c1ccc(C(F)(F)F)cc1` [Compound 1-78], the IC50 was under 10 nM.
Compound `CN(C)C(=O)c1cc(CC(=O)Oc2ccc(F)cc2)ccc1NC(=O)c1ccccc1-c1ccc(C(F)(F)F)cc1` [Compound 1-4, {3-dimethylcarbamoyl-4-[(4′-trifluoromethylbiphenyl-2-carbonyl)amino]phenyl}acetic acid 4-fluorophenyl ester] has an IC50 of 100 to 1000 nM.
With `COC(=O)c1ccc(OC(=O)CCCc2ccc(NC(=O)c3ccc(C)cc3-c3ccc(C(F)(F)F)cc3)c(C(=O)N(C)C)c2)cc1` [Compound 1-9, 4-(4-{3-dimethylcarbamoyl-4-[(5-methyl-4′-trifluoromethylbiphenyl-2-carbonyl)amino]phenyl}butyryloxy) benzoic acid methyl ester] the IC50 was under 10 nM.
For `CN(C)C(=O)c1cc(CCCC(=O)Oc2ccc(C(=O)O)cc2)ccc1NC(=O)c1ccccc1-c1ccc(C(F)(F)F)cc1` [Compound 1-25, 4-(4-{3-dimethylcarbamoyl-4-[(4′-trifluoromethylbiphenyl-2-carbonyl)amino]phenyl}butyryloxy) benzoic acid], the IC50 was 100 to 1000 nM.
`COC(=O)c1ccc(OC(=O)CCCc2ccc(NC(=O)c3ccccc3-c3ccc(C(F)(F)F)cc3)c(C(=O)N(C)C)c2)cc1OC` [Compound 1-17, 4-(4-{3-dimethylcarbamoyl-4-[(4′-trifluoromethylbiphenyl-2-carbonyl)amino]phenyl}butyryloxy)-2-methoxybenzoic acid methyl ester] gave an IC50 of 10 to 100 nM.
For `COc1cc(C(=O)OC(C)C)cc(F)c1OC(=O)CCCc1ccc(NC(=O)c2ccc(C)nc2-c2ccc(C(F)(F)F)cc2)c(C(=O)N(C)C)c1` [Compound 1-38, 4-[4-(3-dimethylcarbamoyl-4-{[6-methyl-2-(4-trifluoromethylphenyl)pyridine-3-carbonyl]amino}phenyl)butyryloxy]-3-fluoro-5-methoxybenzoic acid isopropyl ester], the IC50 was 10 to 100 nM.
`CN(C)C(=O)c1cc(CCCC(=O)Oc2ccc(C(=O)OCCOCc3ccccc3)cc2)ccc1NC(=O)c1ccccc1-c1ccc(C(F)(F)F)cc1` [Compound 1-89, 4-[4-(3-dimethylcarbamoyl-4-{(4′-trifluoromethylbiphenyl-2-carbonyl)amino}phenyl)butyryloxy]benzoic acid 2-benzyloxyethyl ester] was tested, and the IC50 was under 10 nM.
In the case of `COC(=O)c1ccc(OC(=O)CCCc2ccc(NC(=O)c3ccc(C)nc3-c3ccc(C(F)(F)F)cc3)c(C(=O)N(C)C)c2)c(C(=O)OC)c1` [Compound 1-70, 4-[4-(3-dimethylcarbamoyl-4-{[6-methyl-2-(4-trifluoromethylphenyl)pyridine-3-carbonyl]amino}phenyl)butyryloxy]isophthalic acid dimethyl ester], the IC50 is reported as under 10 nM.
